# Laboratory results taken from US9109004B2, “Progesterone receptor antagonists” (Bayer Intellectual Property GmbH, priority 2010, dated 2015).
# pIC50: −log10 of the molar value.
# Experiments:
# [1] = molecular target: T1, human progesterone receptor B (Homo sapiens, UniProt P06401); test: Progesterone-receptor-antagonistic action in stably transfected SK-N-MC cells, MTV-LUC reporter (PR-B); type: cell-based; settings: antagonistic potency vs 0.1 nmol/l promegestone, 24 hours, luciferase
# T1 construct: expressed in transfected cells; host or cells: SK-N-MC human neuroblastoma cells, stably transfected
# T1 sequence (P06401 1-933): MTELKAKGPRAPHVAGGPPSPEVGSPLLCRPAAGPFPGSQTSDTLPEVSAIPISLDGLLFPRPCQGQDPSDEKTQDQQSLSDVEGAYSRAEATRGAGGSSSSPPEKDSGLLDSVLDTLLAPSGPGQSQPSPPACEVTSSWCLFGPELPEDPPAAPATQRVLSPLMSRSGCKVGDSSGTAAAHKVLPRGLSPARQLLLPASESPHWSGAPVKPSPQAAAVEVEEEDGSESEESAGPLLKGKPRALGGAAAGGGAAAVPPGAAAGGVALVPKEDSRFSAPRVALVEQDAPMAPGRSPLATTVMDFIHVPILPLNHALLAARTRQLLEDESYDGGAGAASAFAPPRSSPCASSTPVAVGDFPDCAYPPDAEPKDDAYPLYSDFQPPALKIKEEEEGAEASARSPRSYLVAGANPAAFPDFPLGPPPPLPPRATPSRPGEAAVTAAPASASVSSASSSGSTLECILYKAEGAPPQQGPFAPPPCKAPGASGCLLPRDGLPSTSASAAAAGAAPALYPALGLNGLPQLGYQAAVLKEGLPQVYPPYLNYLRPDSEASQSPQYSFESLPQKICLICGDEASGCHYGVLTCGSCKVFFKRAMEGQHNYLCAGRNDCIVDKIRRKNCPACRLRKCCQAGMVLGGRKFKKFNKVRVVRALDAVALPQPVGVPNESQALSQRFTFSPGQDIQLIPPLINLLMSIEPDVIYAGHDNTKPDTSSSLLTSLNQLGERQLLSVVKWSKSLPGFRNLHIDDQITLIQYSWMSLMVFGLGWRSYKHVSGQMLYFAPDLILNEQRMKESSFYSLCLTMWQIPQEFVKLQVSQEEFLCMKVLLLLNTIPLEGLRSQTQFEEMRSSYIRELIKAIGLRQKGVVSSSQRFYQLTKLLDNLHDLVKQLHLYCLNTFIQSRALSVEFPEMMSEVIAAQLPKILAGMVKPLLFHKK
# Protocol: Progesterone-Receptor-Antagonistic Action in Stable Transfectants of Human Neuroblastoma Cells (SK-N-MC Cells) with the Human Progesterone A or Progesterone B Receptor and an MTV-LUC Reporter Construct
# SK-N-MC cells (human neuroblastoma cells) that have been stably transfected with plasmids that express the human progesterone receptor B (pRChPR-B-neo) or the human progesterone receptor A (pRChPR-A-neo) and a reporter construct (pMMTV-LUC), were incubated for 24 hours either in the absence (negative control) or in the presence of increasing amounts of the particular test compound (0.01 nmol/l, 0.1 nmol/l, 1 nmol/l, 10 nmol/l, 100 nmol/l and 1 μmol/l), to determine the agonistic efficacy. As positive control of reporter gene induction, the cells were treated with the synthetic gestagen promegestone (0.01 nmol/l, 0.1 nmol/l, 1 nmol/l, 10 nmol/l, 100 nmol/l and 1 μmol/l). For determination of the antagonistic activity, the cells were treated with 0.1 nmol/l promegestone and additionally with increasing amounts of the particular test compound (0.01 nmol/l, 0.1 nmol/l, 1 nmol/l, 10 nmol/l, 100 nmol/l and 1 μmol/l). The activity of the reporter gene LUC (LUC=luciferase) was determined in the cell lysates and was measured as RLU (relative light units). All measured values are given as % efficacy and as EC50 or IC50 concentrations.
# [2] = Clearance and half-life after intravenous application in rats; type: in vivo, rat; settings: female rats, i.v. bolus 0.3-0.5 mg/kg
# Protocol: Determination of Clearance and Half-Life after Intravenous Application in Rats
# The in-vivo clearance and half-life of the test substances were determined in female rats with a body weight of approx. 200-250 g. For this, the test substances (in cassette testing, up to 3 different substances per animal) were applied in dissolved form at a dose of 0.3-0.5 mg/kg as a bolus with a volume of 2 ml/kg intravenously (i.v.) in the caudal vein, using compatible solubilizers such as PEG400 and/or ethanol in a compatible amount. Blood samples of approx. 0.2 mL were taken from a polyurethane catheter in the vena jugularis at the time points 2 min, 8 min, 15 min, 30 min, 45 min, 1 h, 2 h, 4 h, 6 h, 8 h, 24 h. The blood samples were kept in lithium-heparin tubes (Monovetten® from Sarstedt) without shaking, and were centrifuged for 15 min at 3000 rpm. A 100 μL aliquot was taken from the supernatant (plasma) and was precipitated by adding 400 μL of cold methanol. The precipitated samples were frozen out overnight at −20° C., then centrifuged once again for 15 min at 3000 rpm before 150 μL of the clear supernatant was taken for the determination of concentration. Analysis was carried out with an Agilent 1200 HPLC system connected to LCMS/MS detection.
# Calculation of the pK Parameters (Via Non-Linear Regression by pK Calculation Software): […]
smiles,measurement,setting,value
"C[C@]12C[C@H](c3ccc(-c4ccc(C(N)=O)cc4)cc3)C3=C4CCC(=O)C=C4CC[C@H]3[C@@H]1CC[C@@]2(O)C(F)(F)C(F)(F)F [Example 79, 4′-[(11β,17β)-17-Hydroxy-3-oxo-17-(pentafluoroethyl)estra-4,9-dien-11-yl]biphenyl-4-carboxamide]",pIC50,[1],10.15
same,CLblood,[2],6.7 mL/min/kg
same,half-life,"[2]; rat, plasma, iv, terminal half-life, read-out: t½ (converted)",9 h
